Test results taken from patent US20220313774A1, “INTRANASAL ADMINISTRATION OF MEROTOCIN FOR IMPROVING LACTATION” (FERRING B.V., priority 2019, published 2022).
*1 amine or outer side, *2 acyl side, *3 side chain or, on linkers, in order; H or OH if unused. Where a SMILES comes first, the peptide text is derived from it. Bridges are numbered along the chain shown (N, C = ends). [ ]: non-standard residue; d: D form. N(4-F-Bzl)Gly = O=C(O)CNCc1ccc(F)cc1; X1 = O=C(CCC[*:2])[*:1]

Columns and labels:
early postpartum women = settings: in vivo
Method: Healthy women received 5 or 20 μg merotocin i.v. shortly after delivery (Part A) or 20 μg merotocin i.v. when lactation was established (Part B). Milk was expressed by pumping at 15 minutes, 3 hours, 6 hours, 9 hours, 12 hours, 18 hours and 18-24 hours after start of infusion and analysed for merotocin and metabolites.

healthy women [1] = settings: in vivo
Method: (§1) The first clinical trial in human, Trial 000015, was a double-blind, placebo-controlled, single dose, within dose panel randomised, sequential dose escalating study. The trial was divided into three parts:
(§2) Part 1. Ascending single i.n. doses. There were 7 dose panels with 8 healthy women in each dose panel (6 active, 2 placebo). The doses investigated were 5 μg, 15 μg, 50 μg, 100 μg, 200 μg, 300 μg, and 400 μg.
(§3) Seven dose levels were investigated: 5, 15, 50, 100, 200, 300, and 400 μg. Each of the doses were administered as a nasal spray based on one or multiple puffs per nostril.
Part 3. Open-label cross-over single i.n. and single i.v. dose in 6 healthy women. The doses investigated were 20 μg as an i.v. infusion over 25 minutes, and 400 μg as a single i.n. dose.
(§4) The intranasal dose was 400 μg (4×140 μl, the same as the highest dose in Part 1), the i.v. dose was 20 μg infused in 2 mL over 25 minutes.

[2] = Trial 000015 Part 3: pharmacokinetics, single intranasal and single intravenous cross-over; settings: female, human, plasma; for Tmax: tmax Mean (SD); for bioavailability: 400 μg i.n. vs 20 μg i.v.
Method: Open-label cross-over single i.n. and single i.v. dose in 6 healthy women. The doses investigated were 20 μg as an i.v. infusion over 25 minutes, and 400 μg as a single i.n. dose.
as §4
The intravenous dose and infusion rate were determined from the intranasal pharmacokinetic data in Part 1.

clinical = settings: female, human, in vivo
Method: as §1, §2, §3
FE 202767 was provided as an isotonic citrate/phosphate buffered solution of pH 5.5 in water in vials containing an extractable volume of 0.9 mL (Table 2). The concentration of FE 202767 was 0.7 mg/mL, to be used appropriately diluted with buffer or, for Part 3, NaCl for injection. The buffer used for FE 202767 was used as placebo in this study.

healthy women [3] = settings: in vivo; remark: listed apart in the source
[4] = Trial 000015 Part 2: pharmacokinetics after multiple intranasal administrations; assay type: in vivo, human; settings: for Cmax / Tmax / AUC(0-t) / half-life: female, human, plasma, inhaled or intranasal, multiple i.n. doses every 3 hours; for Tmax: read-out: tmax Mean (SD); for half-life: read-out: t1/2 Harmonic mean (converted)
Description: The trial was divided into three parts:
Part 2. Ascending multiple i.n. doses.

[5] = 16 i.n. administrations over 48 hours

CC[C@H](C)[C@@H]1NC(=O)[C@H](Cc2ccc(O)cc2)NC(=O)CCCSC[C@@H](C(=O)N(CC(=O)N[C@@H](CC(C)C)C(=O)NCC(N)=O)Cc2ccc(F)cc2)NC(=O)[C@H](CC(N)=O)NC(=O)[C@H](CCC(N)=O)NC1=O [merotocin, Glycinamide, N-(4-mercapto-1-oxobutyl)-L-tyrosyl-L-isoleucyl-Lglutaminyl-L-asparaginyl-L-cysteinyl-N-[(4-fluorophenyl)methyl]glycyl-L-leucyl-, cyclic (1→5)-thioether] (YIQNC[N(4-F-Bzl)Gly]LG-NH2; linker N-5 via X1)
Any AE: number of AEs, E (early postpartum women): 16
Any AE: subjects with AE, n (%) (early postpartum women): 8 (44)
Back pain: number of AEs, E (early postpartum women): 1
Back pain: subjects with AE, n (%) (early postpartum women): 1 (6)
Breast engorgement: number of AEs, E (early postpartum women): 3
Breast engorgement: subjects with AE, n (%) (early postpartum women): 3 (17)
Headache: number of AEs, E (early postpartum women): 3
Headache: subjects with AE, n (%) (early postpartum women): 2 (11)
Lactation puerperal increased: number of AEs, E (early postpartum women): 1
Lactation puerperal increased: subjects with AE, n (%) (early postpartum women): 1 (6)
Muscle spasms: number of AEs, E (early postpartum women): 1
Muscle spasms: subjects with AE, n (%) (early postpartum women): 1 (6)
Uterine spasm: number of AEs, E (early postpartum women): 7
Uterine spasm: subjects with AE, n (%) (early postpartum women): 6 (33)
safety (key results) (early postpartum women): No safety
severe or serious AE (early postpartum women; iv): No severe or serious AE occurred
Dry mouth: subjects reporting (healthy women [1]): 3 subjects
intensity of all adverse events (healthy women [1]): mild
safety (key results) (healthy women [1]): No safety
AUC(0-t) ([2]; inhaled or intranasal, 400 ug, AUCt Geom. mean (% CV), cross-over, 400 μg i.n. single dose, N = 6): 0.083 ng·h/mL
AUC(0-t) ([2]; inhaled or intranasal, 400 ug, AUCt Median, cross-over, 400 μg i.n. single dose, N = 6): 0.0728 ng·h/mL
half-life ([2]; inhaled or intranasal, 400 ug, t1/2 Median, cross-over, 400 μg i.n. single dose, N = 6): 36.6 min
Tmax ([2]; inhaled or intranasal, 400 ug, cross-over, 400 μg i.n. single dose, N = 6): 6.6 min
AUC(0-t) ([2]; iv, 20 ug, AUCt Geom. mean (% CV), cross-over, 20 μg i.v. infusion over 25 minutes, N = 6): 0.146 ng·h/mL
clearance ([2]; iv, 20 ug, CL Median, 20 μg i.v. infusion over 25 minutes, N = 6): 2130 mL/min
Cmax ([2]; iv, 20 μg, Cmax Geom. mean (% CV), cross-over, 20 μg i.v. infusion over 25 minutes, N = 6): 0.463 ng/mL
Cmax ([2]; iv, 20 ug, Cmax Median, cross-over, 20 μg i.v. infusion over 25 minutes, N = 6): 0.463 ng/mL
Vd ([2]; iv, 20 ug, Vz Mean (SD), 20 μg i.v. infusion over 25 minutes, N = 6): 37.5 L
Vd ([2]; iv, 20 ug, Vz Median, 20 μg i.v. infusion over 25 minutes, N = 6): 31.2 L
Cmax ([2]; iv, 20 μg, mean Cmax, single i.v. infusion of 20 μg over 25 minutes): 0.463 ng/mL
half-life ([2]; iv, 20 ug, t1/2 Harmonic mean, cross-over, 20 μg i.v. infusion over 25 minutes, N = 6): 10.2 min
half-life ([2]; iv, 20 ug, t1/2 Median, cross-over, 20 μg i.v. infusion over 25 minutes, N = 6): 10.8 min
Tmax ([2]; iv, 20 ug, cross-over, 20 μg i.v. infusion over 25 minutes, N = 6): 21.6 min
Cmax ([2]; other: intranasal, 400 ug, Cmax Geom. mean (% CV), cross-over, 400 μg i.n. single dose, N = 6): 0.151 ng/mL
Cmax ([2]; other: intranasal, 400 ug, Cmax Median, cross-over, 400 μg i.n. single dose, N = 6): 0.156 ng/mL
bioavailability ([2]; other: intranasal, 400 μg, F Median, N = 6): 3.4%
bioavailability ([2]; other: intranasal, 400 μg, bioavailability (range)): 2.2 to 6.2%
Cmax ([2]; other: intranasal, 400 μg, mean Cmax, single dose i.n. administration, highest dose group): 0.151 ng/mL
half-life (clinical; inhaled or intranasal, 200 ug, t1/2 Median): 23.4 min
half-life (clinical; inhaled or intranasal, 400 ug, t1/2 Harmonic mean): 33.6 min
half-life (clinical; inhaled or intranasal, 400 ug, t1/2 Median): 33 min
half-life (clinical; t1/2): 25 to 35 min
ECG and safety laboratory parameters (healthy women [3]): not affected to any measurable extent
blood pressure shifts (healthy women [3]): Only occasional events of blood pressure shifts
pulse rate (healthy women [3]): appeared to increase the pulse rate
urinary retention (healthy women [3]): no signs of urinary retention
degradation by chymotrypsin (chymotrypsin): degradable by chymotrypsin
accumulation [4, 5]: no indications of relevant accumulation
pre-dose concentrations [4, 5]: falling constantly below the LLOQ
Cmax ([4]; 50 ug, 50 μg, Dose No. 1, read-out: Cmax Geom. mean (% CV)): 0.0275 ng/mL
Cmax ([4]; 50 ug, 50 μg, Dose No. 1, read-out: Cmax Median): 0.0307 ng/mL
Tmax ([4]; 50 ug, 50 μg, Dose No. 1): 13.8 min
Cmax ([4]; 50 ug, 50 μg, Dose No. 2, read-out: Cmax Median): 0.0302 ng/mL
Cmax ([4]; 50 ug, 50 μg, Dose No. 16, read-out: Cmax Median): 0.0266 ng/mL
Tmax ([4]; 50 ug, 50 μg, Dose No. 16): 20.4 min
AUC(0-t) ([4]; 200 ug, 200 μg, Dose No. 1, read-out: AUCt Geom. mean (% CV)): 0.0804 ng·h/mL
AUC(0-t) ([4]; 200 ug, 200 μg, Dose No. 1, read-out: AUCt Median): 0.0876 ng·h/mL
Cmax ([4]; 200 ug, 200 μg, Dose No. 1, read-out: Cmax Geom. mean (% CV)): 0.124 ng/mL
Cmax ([4]; 200 ug, 200 μg, Dose No. 1, read-out: Cmax Median): 0.125 ng/mL
Tmax ([4]; 200 ug, 200 μg, Dose No. 1): 10.8 min
AUC(0-t) ([4]; 200 ug, 200 μg, Dose No. 2, read-out: AUCt Geom. mean (% CV)): 0.0752 ng·h/mL
AUC(0-t) ([4]; 200 ug, 200 μg, Dose No. 2, read-out: AUCt Median): 0.0706 ng·h/mL
Cmax ([4]; 200 ug, 200 μg, Dose No. 2, read-out: Cmax Geom. mean (% CV)): 0.115 ng/mL
Cmax ([4]; 200 ug, 200 μg, Dose No. 2, read-out: Cmax Median): 0.118 ng/mL
half-life ([4]; 200 ug, 200 μg, Dose No. 2): 26.4 min
Tmax ([4]; 200 ug, 200 μg, Dose No. 2): 16.8 min
AUC(0-t) ([4]; 200 ug, 200 μg, Dose No. 16, read-out: AUCt Geom. mean (% CV)): 0.16 ng·h/mL
AUC(0-t) ([4]; 200 ug, 200 μg, Dose No. 16, read-out: AUCt Median): 0.147 ng·h/mL
Cmax ([4]; 200 ug, 200 μg, Dose No. 16, read-out: Cmax Geom. mean (% CV)): 0.218 ng/mL
Cmax ([4]; 200 ug, 200 μg, Dose No. 16, read-out: Cmax Median): 0.225 ng/mL
half-life ([4]; 200 ug, 200 μg, Dose No. 16): 30.6 min
Tmax ([4]; 200 ug, 200 μg, Dose No. 16): 18.6 min
